# PMC4761407 (ACS Chemical Biology, 2015)
# Target: CatSper channel complex (Homo sapiens, UniProt Q7RTX7+Q86XQ3+Q8NEC5+Q96P56)
# Assay: whole-cell patch clamp:[…] inhibits sirenin-induced ICatSper
# Assay type: cell-based
# Sequence of CatSper channel complex (Q8NEC5 whole entry): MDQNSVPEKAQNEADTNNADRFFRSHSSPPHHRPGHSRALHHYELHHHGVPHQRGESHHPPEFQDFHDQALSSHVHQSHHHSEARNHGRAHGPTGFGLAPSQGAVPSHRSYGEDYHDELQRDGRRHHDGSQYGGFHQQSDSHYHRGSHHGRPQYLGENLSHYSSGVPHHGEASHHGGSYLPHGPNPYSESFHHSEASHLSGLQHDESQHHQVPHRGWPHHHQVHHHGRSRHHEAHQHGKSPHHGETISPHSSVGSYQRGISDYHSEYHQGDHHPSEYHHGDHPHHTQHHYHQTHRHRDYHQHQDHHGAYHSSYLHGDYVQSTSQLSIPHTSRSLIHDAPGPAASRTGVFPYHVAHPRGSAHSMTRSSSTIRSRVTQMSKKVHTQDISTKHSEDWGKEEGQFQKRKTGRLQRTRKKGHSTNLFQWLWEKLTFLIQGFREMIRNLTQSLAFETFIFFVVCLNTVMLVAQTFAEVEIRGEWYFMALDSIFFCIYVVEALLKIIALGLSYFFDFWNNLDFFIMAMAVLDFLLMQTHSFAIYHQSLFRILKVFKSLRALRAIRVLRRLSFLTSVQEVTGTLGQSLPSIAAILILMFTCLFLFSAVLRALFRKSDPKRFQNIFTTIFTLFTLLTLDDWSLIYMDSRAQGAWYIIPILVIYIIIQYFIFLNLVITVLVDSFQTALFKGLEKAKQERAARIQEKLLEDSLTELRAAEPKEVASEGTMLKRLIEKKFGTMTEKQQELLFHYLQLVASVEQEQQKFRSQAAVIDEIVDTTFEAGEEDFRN
# Sequence of CatSper channel complex (Q96P56 whole entry): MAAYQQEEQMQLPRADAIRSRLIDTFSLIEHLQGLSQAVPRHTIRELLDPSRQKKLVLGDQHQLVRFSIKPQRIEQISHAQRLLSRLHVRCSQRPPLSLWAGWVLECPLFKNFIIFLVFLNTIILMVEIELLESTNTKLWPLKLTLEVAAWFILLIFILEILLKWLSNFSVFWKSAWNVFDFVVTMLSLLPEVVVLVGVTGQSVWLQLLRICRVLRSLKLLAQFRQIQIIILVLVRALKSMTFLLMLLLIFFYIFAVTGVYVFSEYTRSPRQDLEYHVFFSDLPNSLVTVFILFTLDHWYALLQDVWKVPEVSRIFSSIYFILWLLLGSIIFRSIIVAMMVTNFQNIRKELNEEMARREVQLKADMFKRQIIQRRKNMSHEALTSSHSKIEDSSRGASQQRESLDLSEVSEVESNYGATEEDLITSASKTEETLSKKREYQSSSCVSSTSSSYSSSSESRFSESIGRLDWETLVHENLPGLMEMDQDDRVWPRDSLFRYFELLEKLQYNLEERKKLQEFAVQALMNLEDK
# Sequence of CatSper channel complex (Q7RTX7 whole entry): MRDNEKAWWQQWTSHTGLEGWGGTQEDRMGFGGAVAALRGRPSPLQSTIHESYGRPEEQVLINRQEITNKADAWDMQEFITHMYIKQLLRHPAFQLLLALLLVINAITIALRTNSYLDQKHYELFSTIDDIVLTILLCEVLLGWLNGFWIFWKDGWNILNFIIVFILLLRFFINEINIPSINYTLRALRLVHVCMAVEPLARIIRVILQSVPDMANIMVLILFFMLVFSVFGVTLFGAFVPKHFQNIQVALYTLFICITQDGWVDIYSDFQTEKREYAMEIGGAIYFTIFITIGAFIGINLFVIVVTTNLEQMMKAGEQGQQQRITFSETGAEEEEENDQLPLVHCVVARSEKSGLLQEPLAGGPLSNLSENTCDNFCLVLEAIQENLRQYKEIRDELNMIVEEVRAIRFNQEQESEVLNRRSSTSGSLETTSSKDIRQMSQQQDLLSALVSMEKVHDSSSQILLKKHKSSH
# Sequence of CatSper channel complex (Q86XQ3 whole entry): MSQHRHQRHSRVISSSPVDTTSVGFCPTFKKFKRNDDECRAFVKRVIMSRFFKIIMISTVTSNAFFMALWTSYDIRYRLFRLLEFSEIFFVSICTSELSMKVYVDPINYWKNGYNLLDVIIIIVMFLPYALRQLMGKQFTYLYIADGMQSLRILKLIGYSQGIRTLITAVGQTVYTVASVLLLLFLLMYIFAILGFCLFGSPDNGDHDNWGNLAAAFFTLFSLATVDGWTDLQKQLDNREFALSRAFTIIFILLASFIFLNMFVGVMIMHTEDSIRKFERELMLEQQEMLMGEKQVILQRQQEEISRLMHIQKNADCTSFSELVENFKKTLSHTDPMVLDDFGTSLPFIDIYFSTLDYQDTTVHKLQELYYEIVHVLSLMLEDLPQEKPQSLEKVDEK
structure (smiles),measurement,value
COCC(=O)O[C@]1(CCN(C)CCCc2nc3ccccc3[nH]2)CCc2cc(F)ccc2[C@@H]1C(C)C [mibefradil],whole-cell patch clamp: 30 μM inhibits sirenin-induced ICatSper; FLIPR: 55% redu,30 µM
